Measured values published in patent US20260007133A1, “HERBICIDAL COMPOSITION COMPRISING AZINE COMPOUNDS” (BASF SE, priority 2022, published 2026).

Assays:
Format in all cases: in vivo
Echinochloa crus-galli = test: Greenhouse post-emergence (POST) herbicidal test on ECHCG; conditions: for % activity: ECHCG POST
Description: (§1) The culture containers used were plastic pots containing loamy sand with approximately 3.0% of humus as substrate. The seeds of the test plants were sown separately for each species.
(§2) For the post-emergence treatment, the test plants were grown to a plant height of from 3 to 15 cm, depending on the plant habit, and only then treated with the active compounds which had been suspended or emulsified in water. To this end, the test plants were either sown directly, and grown in the same containers, or they were first grown separately as seedlings and transplanted into the test containers a few days prior to treatment.
(§3) Depending on the species, the plants were kept at 10-25° C. and 20-35° C., respectively.
(§4) The test period extended over 2 to 4 weeks. During this time, the plants were tended and their response to the individual treatments was evaluated.
(§5) Evaluation was carried out using a scale from 0 to 100. 100 means no emergence of the plants, or complete destruction of at least the above-ground parts, and 0 means no damage or normal course of growth. A good herbicidal activity is given at values of at least 70, and very good herbicidal activity is given at values of at least 85.
(§6) If not stated differently, the respective components A and B, and if appropriate, C were formulated as a 5% by weight strength emulsion concentrate and, with addition of the amount of solvent system, introduced into the spray liquor used for applying the active compound.
(§7) As indicated application was either post emergent (POST) at the respective growth stage (GS) of the weed (BBCH code), or pre-emergent (PRE). […]

Digitaria sanguinalis = test: Greenhouse post-emergence (POST) herbicidal test on DIGSA
Description: as §1, §2, §3, §4, §5, §6, §7

Abutilon theophrasti [1] = test: Greenhouse pre-emergence (PRE) herbicidal test on ABUTH
Description: as §1
(§8) The containers were irrigated gently to promote germination and growth and subsequently covered with transparent plastic hoods until the plants had rooted.
as §3, §4, §5, §7

Alopecurus myosuroides = test: Greenhouse pre-emergence (PRE) herbicidal test on ALOMY
Description: as §1, §8, §3, §4, §5, §7

Ambrosia artemisiifolia = test: Greenhouse pre-emergence (PRE) herbicidal test on AMBEL
Description: as §1, §8, §3, §4, §5, §7

Abutilon theophrasti [2] = test: Greenhouse post-emergence (POST) herbicidal test on ABUTH
Description: as §1, §2, §3, §4, §5, §6, §7

Commelina benghalensis = test: Greenhouse pre-emergence (PRE) herbicidal test on COMBE; conditions: Commelina benghalensis, pre-emergence, PRE, COMBE
Description: as §1, §8, §3, §4, §5, §7

Geranium pusillum = test: Greenhouse post-emergence (POST) herbicidal test on GERPU
Description: as §1, §2, §3, §4, §5, §6, §7

Euphorbia heterophylla = test: Greenhouse pre-emergence (PRE) herbicidal test on EPHHL; conditions: Euphorbia heterophylla, pre-emergence
Description: as §1, §8, §3, §4, §5, §7

Lolium multiflorum = test: Greenhouse pre-emergence (PRE) herbicidal test on LOLMU; conditions: Lolium multiflorum, pre-emergence
Description: as §1, §8, §3, §4, §5, §7

[3] = Digitaria sanguinalis, post-emergence, read-out: % activity

CCCCOC(=O)[C@@H](C)Oc1ccc(Oc2ccc(C#N)cc2F)cc1 [Cyhalofop-Butyl, cyhalofop-butyl]
inhibition at 6.25 g/ha (Echinochloa crus-galli; Echinochloa crus-galli, post-emergence, read-out: % activity): 80%
inhibition at 6.25 g/ha (Digitaria sanguinalis; [3]): 35%
inhibition at 25 g/ha (Digitaria sanguinalis; [3]): 70%

C#CCN1C(=O)C(F)(F)Oc2cc(F)c(-n3c(=O)n(C)c(=S)n(C)c3=O)cc21 [Trifludimoxazin, trifludimoxazin]
% activity (Abutilon theophrasti [1]; PRE, ABUTH, use rate 0.5 gai/ha): 0%
% activity (Alopecurus myosuroides; PRE, ALOMY, use rate 0.5 gai/ha): 10%
% activity (Ambrosia artemisiifolia; PRE, AMBEL, use rate 0.5 gai/ha): 0%
% activity (Digitaria sanguinalis; POST, DIGSA, use rate 1 gai/ha): 30%
% activity (Abutilon theophrasti [2]; POST, ABUTH, use rate 0.5 gai/ha): 80%

CCCN(CCC)c1c([N+](=O)[O-])cc(C(F)(F)F)cc1[N+](=O)[O-] [Trifluralin, trifluralin]
pest or weed control at 500 g/ha (Abutilon theophrasti [1]; Abutilon theophrasti, pre-emergence, 480 h, PRE, ABUTH, Trifluralin solo 500 gai/ha, 20 DAT, read-out: % activity): 25%
pest or weed control at 1000 g/ha (Commelina benghalensis; 480 h, Trifluralin solo 1000 gai/ha, 20 DAT): 80%
pest or weed control at 500 g/ha (Geranium pusillum; Geranium pusillum, post-emergence, 480 h, POST, GERPU, Trifluralin solo 500 gai/ha, 20 DAT, read-out: % activity): 25%
pest or weed control at 1000 g/ha (Geranium pusillum; Geranium pusillum, post-emergence, 480 h, POST, GERPU, Trifluralin solo 1000 gai/ha, 20 DAT): 85%
pest or weed control at 1000 g/ha (Alopecurus myosuroides; Alopecurus myosuroides, pre-emergence, 480 h, PRE, ALOMY, Trifluralin solo 1000 gai/ha, 20 DAT): 65%
pest or weed control at 500 g/ha (Ambrosia artemisiifolia; Ambrosia artemisiifolia, pre-emergence, 480 h, PRE, AMBEL, Trifluralin solo 500 gai/ha, 20 DAT, read-out: % activity): 10%
pest or weed control at 1000 g/ha (Euphorbia heterophylla; 480 h, PRE, EPHHL, Trifluralin solo 1000 gai/ha, 20 DAT): 35%
pest or weed control at 500 g/ha (Lolium multiflorum; 480 h, PRE, LOLMU, Trifluralin solo 500 gai/ha, 20 DAT, read-out: % activity): 5%
pest or weed control at 1000 g/ha (Lolium multiflorum; 480 h, PRE, LOLMU, Trifluralin solo 1000 gai/ha, 20 DAT): 15%
pest or weed control at 500 g/ha (Abutilon theophrasti [2]; Abutilon theophrasti, post-emergence, 480 h, POST, ABUTH, Trifluralin solo 500 gai/ha, 20 DAT, read-out: % activity): 15%
pest or weed control at 1000 g/ha (Abutilon theophrasti [2]; Abutilon theophrasti, post-emergence, 480 h, POST, ABUTH, Trifluralin solo 1000 gai/ha, 20 DAT): 70%

CCNc1nc(Cl)nc(NC(C)C)n1 [Atrazine, atrazine]
inhibition at 50 g/ha (Abutilon theophrasti [1]; Abutilon theophrasti, pre-emergence, 480 h, PRE, ABUTH, use rate 50 gai/ha, 20 DAT): 0%
inhibition at 100 g/ha (Commelina benghalensis; 480 h, use rate 100 gai/ha, 20 DAT): 25%
inhibition at 50 g/ha (Geranium pusillum; Geranium pusillum, post-emergence, 480 h, POST, GERPU, use rate 50 gai/ha, 20 DAT): 30%
inhibition at 100 g/ha (Geranium pusillum; Geranium pusillum, post-emergence, 480 h, POST, GERPU, use rate 100 gai/ha, 20 DAT, read-out: % activity): 75%

CS(=O)(=O)c1cc(C(F)(F)F)ccc1C(=O)c1cnoc1C1CC1 [Isoxaflutole, isoxaflutole]
inhibition at 6.3 g/ha (Abutilon theophrasti [1]; Abutilon theophrasti, pre-emergence, ABUTH PRE, use rate 6.3 gai/ha): 45%
inhibition at 6.3 g/ha (Alopecurus myosuroides; Alopecurus myosuroides, pre-emergence, ALOMY PRE, use rate 6.3 gai/ha): 0%
inhibition at 25 g/ha (Alopecurus myosuroides; Alopecurus myosuroides, pre-emergence, ALOMY PRE, use rate 25 gai/ha): 0%
inhibition at 6.3 g/ha (Ambrosia artemisiifolia; Ambrosia artemisiifolia, pre-emergence, AMBEL PRE, use rate 6.3 gai/ha): 25%
inhibition at 6.3 g/ha (Euphorbia heterophylla; EPHHL PRE, use rate 6.3 gai/ha): 45%
inhibition at 25 g/ha (Euphorbia heterophylla; EPHHL PRE, use rate 25 gai/ha): 75%
inhibition at 6.3 g/ha (Lolium multiflorum; LOLMU PRE, use rate 6.3 gai/ha): 0%

CCc1cnc(C2=NC(C)(C(C)C)C(=O)N2)c(C(=O)O)c1 (stereo not shown) [Imazethapyr, imazethapyr]
inhibition at […] (Abutilon theophrasti [1]; Abutilon theophrasti, pre-emergence, PRE, ABUTH, use rate 7.5 gai/ha, read-out: % activity): 60%
inhibition at […] (Commelina benghalensis; use rate 7.5 gai/ha, read-out: % activity): 30%
inhibition at 15 g/ha (Commelina benghalensis; use rate 15 gai/ha): 70%
inhibition at […] (Ambrosia artemisiifolia; Ambrosia artemisiifolia, pre-emergence, PRE, AMBEL, use rate 7.5 gai/ha, read-out: % activity): 0%
inhibition at 15 g/ha (Ambrosia artemisiifolia; Ambrosia artemisiifolia, pre-emergence, PRE, AMBEL, use rate 15 gai/ha): 10%
inhibition at 15 g/ha (Lolium multiflorum; PRE, LOLMU, use rate 15 gai/ha): 40%

CCOC1Oc2ccc(OS(C)(=O)=O)cc2C1(C)C (stereo not shown) [Ethofumesate, ethofumesate]
inhibition at 250 g/ha (Ambrosia artemisiifolia; Ambrosia artemisiifolia, pre-emergence, 480 h, PRE, use rate 250 gai/ha, 20 DAT): 0%
inhibition at 1000 g/ha (Lolium multiflorum; 480 h, PRE, use rate 1000 gai/ha, 20 DAT): 60%

CCCC(=NOCC(C)Oc1ccc(Cl)cc1)C1=C(O)CC(C2CCCSC2)CC1=O (stereo not shown) [Profoxydim, profoxydim]
% activity (Geranium pusillum; GERPU POST, use rate 6.3 gai/ha): 0%
% activity (Echinochloa crus-galli; use rate 6.3 gai/ha): 80%
% activity (Echinochloa crus-galli; use rate 12.5 gai/ha): 85%
% activity (Digitaria sanguinalis; DIGSA POST, use rate 6.3 gai/ha): 60%
% activity (Abutilon theophrasti [2]; ABUTH POST, use rate 6.3 gai/ha): 20%
